In patent publication US8546357B2, “Boron-containing small molecules for controlling ectoparasites” (priority 2011, dated 2013):

Assays:
[1] = test system: Lone star tick larvae (Amblyomma americanum); experiment: Larval immersion microassay against larval-stage Lone star ticks; details: Amblyomma americanum, 24 h, read-out: activity (percent larval mortality)
Procedure: The larval immersion microassay was conducted as described in detail in White, et al., J. Med. Entomol. 41: 1034-1042 (2004). Compounds of the invention were formulated in dimethylsulfoxide (DMSO) to prepare a stock solution at a concentration of at least 10 mM. Using 96-well microtiter plates, an aliquot of the mM sample was subsequently diluted in a water-based solution containing 1% ethanol and 0.2% Triton X-100, to obtain the desired concentration (typically 0.3 mM or lower) of compound in a volume of 0.1 ml (minimum n=3 replicates per compound or concentration). Approximately 30-50 Lone star tick larvae (Amblyomma americanum) were submerged into each well containing compounds. After a 30 minute immersion period, larvae were removed with a wide-bore pipette tip in 0.05 ml of fluid, dispensed into a commercial paper tissue biopsy bag which was sealed at the top with a plastic dialysis clip, inverted and allowed to air dry for 60 minutes. Bags containing larvae were then incubated at approximately 27 degrees Celsius and >90% relative humidity. After 24 hours, bags were opened, live and dead larvae were counted and percent larval mortality was calculated.
7 and 8 contain one chiral center each, and are racemic mixtures comprised of approximately 50% R- and 50% S-enantiomer. In vitro and surrogate animal (rat) studies were conducted to evaluate the biological activity of the R- and S-enantiomers of 7 and 8. For the in vitro study, larvae of the Lone star tick (Amblyomma americanum) were exposed to 9, 10, 11 and 12 using the larval immersion microassay at a concentration of no greater than 0.3 mM. Following exposure, larvae were removed, transferred to a tissue biopsy bag and incubated at approximately 27 degrees Celsius and >90% relative humidity. After 24 hours, biopsy bags were opened and the numbers of live and dead larvae were determined

[2] = test system: adult American dog tick (Dermacentor variabilis); experiment: Therapeutic (knockdown) and residual efficacy against adult American dog tick infestations on dogs, oral; format: in vivo; details: for Geometric mean group live parasite counts / % efficacy: Table 6, oral capsule 25 mg/kg
Procedure: (§1) The therapeutic (knockdown) and residual efficacy of 5, administered orally at a point dose of 25 mg/kg bodyweight, was evaluated against adult American dog tick (D. variabilis) infestations on dogs. Six beagle dogs were allocated to one of two treatment groups, an untreated control group (n=4 dogs) or 5 group (n=2 dogs). On Day 0, two dogs were treated with 5 via oral gavage (25 mg/ml 5, dissolved in a solution of 55% polyethylene glycol-300, 35% propylene glycol and 10% water) at a point dose of approximately 25 mg/kg. Twenty-four (24) hours before treatment (Day −1), all dogs were infested with approximately 50 unfed, adult-stage American dog ticks (D. variabilis; approximately 50% male and 50% female). On Day 1, approximately 24 hours after treatment, thumb counts were conducted to determine the number and life-status classification of ticks present on all dogs (normal, moribund or dead; attached or detached). Ticks were not removed during thumb counts. On Day 2, approximately 48 hours after treatment, all ticks were classified and removed from dogs. Dogs were re-infested with approximately 50 unfed, adult D. variabilis ticks on Days 5 and 12, with tick classification, counts and removal on Days 7 and 14 (approximately 48 hours after each infestation).
(§2) The therapeutic (knockdown) and residual efficacy of 7 and 8, each administered orally at a point dose of 25 mg/kg bodyweight, was evaluated against adult tick (Dermacentor variabilis and Rhipicephalus sanguineus) and adult cat flea (Ctenocephalides felis) infestations on dogs. Twelve (12) male and female beagle dogs were randomly allocated to one of three treatment groups, four (4) dogs per group: Untreated control; 7, 25 mg/kg; and 8, 25 mg/kg. On Day −1, all dogs were infested with approximately 50 unfed, adult D. variabilis ticks. On Day 0, dogs were orally administered gelatin capsules containing either 7 or 8 (50% technical active, 47% microcrystalline cellulose and 3% croscarmellose sodium, w/w). Ticks were counted and classified, but not removed, on all dogs on Day 1, approximately 24 hours after treatment. On Day 2, approximately 48 hours after treatment, ticks were counted, classified and removed. Dogs were re-infested with the same number of D. variabilis ticks on Days 5, 12, 19 and 28 and tick counts were conducted on Days 7, 14, 21 and 30.
(§3) The therapeutic (knockdown) and residual efficacy of 7, administered orally at a point dose of 35 mg/kg bodyweight, was evaluated against adult tick (Dermacentor variabilis and Rhipicephalus sanguineus) and adult cat flea (Ctenocephalides felis) infestations on dogs. Twelve (12) male and female beagle dogs were allocated to either an untreated, negative control group or 7 group (n=6 dogs per group). Dogs were infested with approximately 50 unfed, adult D. variabilis ticks on Days −1, 5, 12, 19, 28, 35 and 42. On Day 0, dogs were orally administered gelatin capsules containing Compound 8194 (50% technical active, 47% microcrystalline cellulose and 3% croscarmellose sodium, w/w) at a point dose of 35 mg/kg. D. variabilis tick counts and classification were conducted on Day 1 (thumb count, approximately 24 hours after treatment) and Days 2, 7, 14, 21, 30, 37 and 44 (approximately 48 hours after treatment). Following removal of D. variabilis ticks on Day 30, all dogs were co-infested with approximately 50 unfed, adult brown dog ticks (R. sanguineus) and approximately 100 unfed, adult cat fleas (C. felis). Brown dog tick and cat flea counts were conducted on Day 32 (approximately 48 hours after infestation). GM percent efficacy of treatments against both tick species and fleas was calculated using the following formula: […]
The therapeutic (knockdown) and residual efficacy of S-enantiomer, 9, administered orally at a point dose of 25 mg/kg bodyweight, was evaluated against adult tick (Dermacentor variabilis and Rhipicephalus sanguineus) and adult cat flea (Ctenocephalides felis) infestations on dogs. […]

[3] = test system: brown dog tick (Rhipicephalus sanguineus); experiment: Residual efficacy against adult brown dog tick infestations on dogs, oral; format: in vivo; details: Table 6, oral capsule 25 mg/kg, Day 32
Procedure: (§4) Immediately following removal of D. variabilis ticks on Day 30, dogs were co-infested with approximately 50 adult, unfed brown dog ticks (R. sanguineus, approximately 50% male and 50% female) and approximately 100 adult, unfed cat fleas (C. felis, approximately 50% male and 50% female). Ticks and fleas were counted and removed on Day 32 (approximately 48 hours after infestation). GM percent efficacy of treatments against both tick species and fleas was calculated using the following formula: […]
as §3
(§5) The therapeutic (knockdown) and residual efficacy of S-enantiomer, 9, administered orally at a point dose of 25 mg/kg bodyweight, was evaluated against adult tick (Dermacentor variabilis and Rhipicephalus sanguineus) and adult cat flea (Ctenocephalides felis) infestations on dogs. Twelve (12) male and female beagle dogs were allocated to either an untreated, negative control group or 9 group (n=6 dogs per group). Dogs were infested with approximately 50 unfed, adult D. variabilis ticks on Days −1, 5, 12, 19, and 28. On Day 0, dogs were orally administered gelatin capsules containing 9 (50% technical active, 47% microcrystalline cellulose and 3% croscarmellose sodium, w/w) at a point dose of 25 mg/kg. D. variabilis tick counts and classification were conducted on Day 1 (thumb count, approximately 24 hours after treatment) and Days 2, 7, 14, 21 and 30 (approximately 48 hours after treatment). Following removal of D. variabilis ticks on Day 30, all dogs were co-infested with approximately 50 unfed, adult brown dog ticks (R. sanguineus) and approximately 100 unfed, adult cat fleas (C. felis). Brown dog tick and cat flea counts were conducted on Day 32 (approximately 48 hours after infestation). GM percent efficacy of treatments against both tick species and fleas was calculated using the following formula: […]

[4] = test system: cat flea (Ctenocephalides felis); experiment: Residual efficacy against adult cat flea infestations on dogs, oral; format: in vivo; details: Table 6, oral capsule 25 mg/kg, Day 32
Procedure: as §4, §3, §5

[5] = Tolerability of oral treatment in dogs; format: in vivo, dog; details: Example 10, oral capsule 25 mg/kg
Procedure: as §1, §2
The therapeutic (knockdown) and residual efficacy of 7, administered orally at a point dose of 35 mg/kg bodyweight, was evaluated against adult tick (Dermacentor variabilis and Rhipicephalus sanguineus) and adult cat flea (Ctenocephalides felis) infestations on dogs. Twelve (12) male and female beagle dogs were allocated to either an untreated, negative control group or 7 group (n=6 dogs per group). Dogs were infested with approximately 50 unfed, adult D. variabilis ticks on Days −1, 5, 12, 19, 28, 35 and 42. On Day 0, dogs were orally administered gelatin capsules containing Compound 8194 (50% technical active, 47% microcrystalline cellulose and 3% croscarmellose sodium, w/w) at a point dose of 35 mg/kg. […] GM percent efficacy of treatments against both tick species and fleas was calculated using the following formula: […]
The therapeutic efficacy and speed of kill of 7, administered orally at a point dose of 20 mg/kg bodyweight, was evaluated against adult cat flea (Ctenocephalides felis) infestations on dogs. […]

[6] = test system: American dog tick (Dermacentor variabilis) nymphs; experiment: Efficacy against nymphal-stage American dog ticks on rats, oral; format: in vivo; details: fipronil positive control, oral 10 mg/kg bodyweight, all studies
Procedure: Evaluations were conducted using a modified version of the assay as described in Gutierrez et al., J. Med. Entomol. 43(3): 526-532 (2006). This assay may be modified by simply using different tick species (the reference describes Amblyomma americanum ticks), such as Dermacentor variabilis or Rhipicephalus sanguineus ticks, as well as different life-stages (larval, nymphal or adult). Further, the reference describes using topical application methods, but oral, transdermal and subcutaneous injection routes of administration may be used.
In these studies, adult male or female rats, approximately 300 grams in size, were randomly assigned to a treatment group or a control (untreated negative control or fipronil positive control) group. Each group consisted of three (3) to five (5) rats. […] On Day 2, approximately forty-eight (48) hours after treatment, live and dead ticks were removed from animals and counted.
Live tick counts were transformed using the natural logarithm transformation plus one (Ln count+1); addition of one to each count served to adjust for counts that were zero. […] GM percent efficacy of treatments was calculated using the following formula:
Enantiomers were evaluated for activity against American dog tick (Dermacentor variabilis) nymphs on rats. […] On Day 2, approximately forty-eight (48) hours after treatment, live and dead ticks were removed from animals and counted. […]

| SMILES | mortality at 300 µM [1] [%] | continued residual efficacy ([2]; Example 10, oral capsule 25 mg/kg, through Day 21) [%] | Geometric mean group live parasite counts ([2]; Day 1) | % efficacy ([2]; Day 2) | Geometric mean group live parasite counts ([2]; Day 2) | % efficacy ([2]; Day 7) | Geometric mean group live parasite counts ([2]; Day 7) | % efficacy ([2]; Day 14) | Geometric mean group live parasite counts ([2]; Day 14) | % efficacy ([2]; Day 21) | Geometric mean group live parasite counts ([2]; Day 21) | Geometric mean group live parasite counts ([2]; Day 30) | Geometric mean group live parasite counts [3] | Geometric mean group live parasite counts [4] | tolerability [5] | efficacy (% reduction in live tick counts) [6] [%] |
| --- | --- | --- | --- | --- | --- | --- | --- | --- | --- | --- | --- | --- | --- | --- | --- | --- |
| Cc1cc(C2=NO[C@@](c3cc(Cl)c(Cl)c(Cl)c3)(C(F)(F)F)C2)ccc1C(=O)NCc1ccc2c(c1)B(O)OC2(C)C [Compound 9, (S)—N-((1-hydroxy-3,3-dimethyl-1,3-dihydrobenzo[c][1,2]oxaborol-6-yl)methyl)-2-methyl-4-(5-(3,4,5-trichlorophenyl)-5-(trifluoromethyl)-4,5-dihydroisoxazol-3-yl)benzamide] | ≥ 80 | 100 | 0.0 | (100) % | 0.0 | (100) % | 0.0 | (100) % | 0.0 | (100) % | 0.0 | 1.1 | 0.5 | 0.9 | well tolerated | – |
| N#Cc1nn(-c2c(Cl)cc(C(F)(F)F)cc2Cl)c(N)c1[S+]([O-])C(F)(F)F (stereo not shown) [Fipronil, fipronil, reference compound] | – | – | – | – | – | – | – | – | – | – | – | – | – | – | – | > 95 |
